Results from patent publication US20060069132A1, “Azolecarboxamide herbicides” (priority 2004, published 2006).

Experiments:
barnyardgrass [1] = test: Test C flooded paddy test; type: in vivo, Echinochloa crus-galli
Method in brief: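 Visual rating, 0 (no effect) to 100 (complete control), vs. controls at 12–14 d in greenhouse. Postemergence: 1–4-leaf plants, 2–18 cm. Paddy: flooded, barnyardgrass at 2-leaf stage.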

Surinam grass = test: Test B pre-/postemergence herbicide test; type: in vivo, Urochloa decumbens; details: for Surinam Grass plant response rating: postemergence
Method in brief: (§1)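 Herbicidal effect was judged by eye on a 0–100 scale after plants stood 13 to 15 days in the greenhouse following pre- or postemergence treatment with surfactant-containing formulations.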

barnyardgrass [2] = test: Test B pre-/postemergence herbicide test; type: in vivo, Echinochloa crus-galli; details: for Barnyardgrass plant response rating: postemergence, scale 0 (no effect) to 100 (complete control)
Method in brief: (§2)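 Response was scored visually 13 to 15 days after treatment against untreated greenhouse controls, 0 meaning no effect and 100 complete control. Formulations (solvent mixture plus surfactant) went onto soil after planting, onto foliage of 1- to 4-leaf plants, and onto 2-leaf plants in a flooded paddy set including rice and barnyardgrass.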

barnyardgrass [3] = test: Test B flooded paddy test; type: in vivo, Echinochloa crus-galli; details: 1000 g ai/ha, scale 0 to 100 (0 no effect, 100 complete control)
Method in brief: (§3)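 Visual control ratings, 0–100 versus untreated controls, taken after 13 to 15 days in the greenhouse. Blackgrass received a postemergence spray at the 1- to 4-leaf stage (2–18 cm); ducksalad, umbrella sedge and barnyardgrass were flooded-paddy treated at 2 leaves.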

ducksalad [4] = test: Test C flooded paddy test; type: in vivo, Heteranthera limosa
cocklebur = test: Test B pre-/postemergence herbicide test; type: in vivo, Xanthium strumarium; details: for Cocklebur plant response rating: postemergence, scale 0 (no effect) to 100 (complete control)
Method in brief: as §2

velvetleaf = test: Test B pre-/postemergence herbicide test; type: in vivo, Abutilon theophrasti; details: for Velvetleaf plant response rating: postemergence
Method in brief: as §1

morningglory = test: Test B pre-/postemergence herbicide test; type: in vivo, Ipomoea coccinea; details: for Morningglory plant response rating: postemergence
Method in brief: as §2

[5] = system: smallflower umbrella sedge; test: Test C flooded paddy test; type: in vivo, Cyperus difformis
wild oat = test: Test B postemergence herbicide test; type: in vivo, Avena fatua; details: postemergence
Method in brief: (§4)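 Plants grow to 1- to 4-leaf stage (2–18 cm) for postemergence spraying, or to 2-leaf stage for the paddy test. Formulated compound is applied. Greenhouse holding lasts 13–15 days. Response is scored visually relative to controls, 0 no effect to 100 complete control; a dash means no result.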

rice [6] = test: Test C flooded paddy test; type: in vivo, Oryza sativa
Method in brief: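 Injury scored visually against controls on a 0 (no effect) to 100 (complete control) scale, 12 to 14 days after treatment in greenhouse. Flooded paddy plants treated at 2-leaf stage; postemergence plants at 1- to 4-leaf stage, 2 to 18 cm tall.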

corn = test: Test B pre-/postemergence herbicide test; type: in vivo, Zea mays; details: for Corn plant response rating: postemergence
Method in brief: as §1

ducksalad [7] = test: Test B flooded paddy test; type: in vivo, Heteranthera limosa; details: 1000 g ai/ha, scale 0 to 100 (0 no effect, 100 complete control)
Method in brief: as §3

rice [8] = test: Test B flooded paddy test; type: in vivo, Oryza sativa; details: 1000 g ai/ha, scale 0 to 100 (0 no effect, 100 complete control)
Method in brief: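 Treated at 2-leaf (paddy) or 1–4-leaf, 2–18 cm (postemergence); greenhouse 13–15 d; visual score vs control, 0 none to 100 complete control; dash = not tested.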

giant foxtail = test: Test B pre-/postemergence herbicide test; type: in vivo, Setaria faberi; details: for Foxtail, Giant plant response rating: postemergence
Method in brief: as §1

blackgrass = test: Test B postemergence herbicide test; type: in vivo, Alopecurus myosuroides; details: postemergence, visual rating, scale 0 (no effect) to 100 (complete control)
Method in brief: as §3

wheat = test: Test B postemergence herbicide test; type: in vivo, Triticum aestivum; design: key to Wheat plant response rating: 0 = no effect, 100 = complete control; details: postemergence
Method in brief: as §4

rice [9] = test: Test B pre-/postemergence herbicide test; type: in vivo, Oryza sativa; details: 0 = no effect, 100 = complete control, preemergence
Method in brief: as §1

[10] = system: small flower umbrella sedge; test: Test B flooded paddy test; type: in vivo, Cyperus difformis; details: 1000 g ai/ha, scale 0 to 100 (0 no effect, 100 complete control)
Method in brief: as §3

pigweed = test: Test B pre-/postemergence herbicide test; type: in vivo, Amaranthus retroflexus; details: for Pigweed plant response rating: postemergence
Method in brief: as §1

lambsquarters = test: Test B pre-/postemergence herbicide test; type: in vivo, Chenopodium album; details: for Lambsquarters plant response rating: postemergence
Method in brief: as §1

large crabgrass = test: Test B pre-/postemergence herbicide test; type: in vivo, Digitaria sanguinalis; details: for Crabgrass, Large plant response rating: postemergence
Method in brief: as §1

[11] = 125 g ai/ha, scale 0 to 100 (0 no effect, 100 complete control)
[12] = 250 g ai/ha, scale of 0 to 100, 0 is no effect, 100 is complete control
[13] = 500 g ai/ha, visual rating after 12 to 14 days, scale 0 to 100 (0 no effect, 100 complete control)
[14] = 125 g ai/ha, 0 = no effect, 100 = complete control, preemergence
[15] = 500 g ai/ha, visual rating, 0 = no effect, 100 = complete control, preemergence
[16] = 125 g ai/ha, visual rating, scale 0 (no effect) to 100 (complete control)
[17] = 500 g ai/ha, scale 0 to 100, 0 is no effect, 100 is complete control

CCNC(=O)c1cc(NC(=O)c2cc(C(C)(C)C)nn2CC)c(F)cc1F [Compound 252]
Barnyardgrass plant response rating (barnyardgrass [1]; 62 g ai/ha, scale 0 to 100 (0 no effect, 100 complete control)): 0 | Barnyardgrass plant response rating (barnyardgrass [1]; [11]): 0 | Barnyardgrass plant response rating (barnyardgrass [1]; [12]): 15 | Plant response rating, Barnyardgrass (barnyardgrass [1]; [13]): 45 | Surinam Grass plant response rating (0 to 100 scale) (Surinam grass; [14]): 10 | Plant response rating, Surinam Grass (Surinam grass; [15]): 70 | Surinam Grass plant response rating (Surinam grass; [16]): 10 | Surinam Grass plant response rating (Surinam grass; [17]): 20 | Barnyardgrass plant response rating (0 to 100 scale) (barnyardgrass [2]; [14]): 0 | Plant response rating, Barnyardgrass (barnyardgrass [2]; [15]): 70 | Barnyardgrass plant response rating (barnyardgrass [2]; 125 g ai/ha, visual rating): 0 | Barnyardgrass plant response rating (barnyardgrass [2]; 500 g ai/ha, visual rating): 10 | Barnyardgrass plant response rating (barnyardgrass [3]): 70 | Ducksalad plant response rating (ducksalad [4]; 62 g ai/ha, scale 0 to 100): 0 | Ducksalad plant response rating (ducksalad [4]; [11]): 0 | Ducksalad plant response rating (ducksalad [4]; [12]): 15 | Plant response rating, Ducksalad (ducksalad [4]; [13]): 80 | Cocklebur plant response rating (0 to 100 scale) (cocklebur; [14]): 0 | Plant response rating, Cocklebur (cocklebur; [15]): 0 | Cocklebur plant response rating (cocklebur; 125 g ai/ha, visual rating): 20 | Cocklebur plant response rating (cocklebur; 500 g ai/ha, visual rating): 40 | Velvetleaf plant response rating (0 to 100 scale) (velvetleaf; [14]): 0 | Plant response rating, Velvetleaf (velvetleaf; [15]): 60 | Velvetleaf plant response rating (velvetleaf; [16]): 30 | Velvetleaf plant response rating (velvetleaf; [17]): 30 | Morningglory plant response rating (0 to 100 scale) (morningglory; [14]): 0 | Plant response rating, Morningglory (morningglory; [15]): 0 | Morningglory plant response rating (morningglory; [16]): 20 | Morningglory plant response rating (morningglory; [17]): 20 | Sedge, Umbrella plant response rating ([5]; 62 g ai/ha, scale 0 to 100): 0 | Sedge, Umbrella plant response rating [5, 11]: 40 | Sedge, Umbrella plant response rating [5, 12]: 50 | Plant response rating, Sedge, Umbrella [5, 13]: 75 | Oat, Wild plant response rating (wild oat; [16]): 20 | Oat, Wild plant response rating (wild oat; [17]): 20 | Rice plant response rating (rice [6]; 62 g ai/ha, scale 0 to 100): 0 | Rice plant response rating (rice [6]; [11]): 45 | Rice plant response rating (rice [6]; [12]): 55 | Plant response rating, Rice (rice [6]; [13]): 60 | Corn plant response rating (0 to 100 scale) (corn; [14]): 0 | Plant response rating, Corn (corn; [15]): 60 | Corn plant response rating (corn; [16]): 10 | Corn plant response rating (corn; [17]): 10 | Ducksalad plant response rating (ducksalad [7]): 90 | Rice plant response rating (rice [8]): 80 | Foxtail, Giant plant response rating (0 to 100 scale) (giant foxtail; [14]): 10 | Plant response rating, Foxtail, Giant (giant foxtail; [15]): 90 | Foxtail, Giant plant response rating (giant foxtail; [16]): 20 | Foxtail, Giant plant response rating (giant foxtail; [17]): 30 | Blackgrass plant response rating (blackgrass; 125 g ai/ha): 10 | Blackgrass plant response rating (blackgrass; 500 g ai/ha): 20 | Wheat plant response rating (wheat; [16]): 20 | Wheat plant response rating (wheat; [17]): 20 | Rice plant response rating (0 to 100 scale) (rice [9]; 125 g ai/ha): 30 | Plant response rating, Rice (rice [9]; 500 g ai/ha, visual rating): 50 | Sedge, Umbrella plant response rating [10]: 80 | Plant response rating, Pigweed (pigweed; [15]): 100 | Pigweed plant response rating (pigweed; [16]): 20 | Pigweed plant response rating (pigweed; [17]): 30 | Plant response rating, Lambsquarters (lambsquarters; [15]): 100 | Lambsquarters plant response rating (lambsquarters; [16]): 30 | Lambsquarters plant response rating (lambsquarters; [17]): 30 | Crabgrass, Large plant response rating (0 to 100 scale) (large crabgrass; [14]): 80 | Plant response rating, Crabgrass, Large (large crabgrass; [15]): 100 | Crabgrass, Large plant response rating (large crabgrass; [16]): 0 | Crabgrass, Large plant response rating (large crabgrass; [17]): 10
